Source: EP4548971A1, “1,4-BENZOTHIAZEPINES AND RELATED COMPOUNDS WITH CYCLOPROPANOL GROUPS AS MULTI-TARGETED DRUGS” (Georg-August-Universität Göttingen Stiftung Öffentlichen …, priority 2023, dated 2025)

Target: T1, SERCA2a (Mus musculus, UniProt O55143)
T1 construct: host or cells: HL-1 cardiac cells
Assay: NADH-coupled ATPase assay on microsomal membrane vesicles from mouse heart ventricles (mouse SR)
Assay type: biochemical
Set-up: key to SERCA2a mouse SR effect class: +++: a strong effect, comparable to or greater than that of a known compounds at a given concentration (25 µM in RyR2 R-CEPIA1er assay, 10 µM in caffeine assay and on microsomal membrane vesicles); ++: moderate effect; +: observable effect; -: no effect
Conditions: for SERCA2a mouse SR effect class: 10 µM on microsomal membrane vesicles
Method: All animal procedures were performed in accordance with Directive 2010/63/EU of the European Parliament and the Council on the protection of animals used in research, as well as Animal Welfare Law of the Federal Republic of Germany (Tierschutzgesetz der Bundesrepublik Deutschland, TierSchG). […] All mice were housed with a 12 hours light/dark cycle with free access to food and water. Adult C57BL/6N mice of both genders were sedated with isoflurane in a sealed container and quickly euthanized by cervical dislocation. Heart ventricles were taken out instantly, washed with ice cold PBS plus complete, cut into smaller pieces and snap frozen in liquid nitrogen straight away.
Thawed on ice lysis buffer (10mM EDTA, 10mM HEPES, cOmplete, pH 7.4) was added and the ventricles were homogenized with a Qiagen cellruptor for 20 s. On ice an equal volume of restoration buffer (500 mM sucrose, 10 mM HEPES, cOmplete, pH7.2) was added and briefly mixed. The homogenate was centrifuged at 10000 × g for 20 min at 4° C. The supernatant was collected and centrifuged again for another hour (100000 × g at 4°C). Then the pellet was carefully resuspended in resuspension buffer (250 mM sucrose, 10 mM HEPES, cOmplete, pH 7.2) on ice by pipetting the solution up and down until fully dissolved. The obtained solution was diluted to a protein concentration of 5 µg/µl with the resuspension buffer and the aliquots were snap frozen in liquid nitrogen and then stored at -80 °C until usage.
To determine whether new compounds could increase the SERCA2a activity, HEK-293 microsomes (40 - 150 µg of total protein) or mouse ventricular microsomes (1 - 20 µg of total protein) were diluted in 100 µl of the assay buffer used for measurement of SERCA activity (described below) and incubated at room temperature for 5 minutes prior to the experiments. The measurements of SERCA2a activity were made at 28 °C by using a NADH -coupled ATPase assay. Briefly, the assay buffer contained 60 mM MOPS, 120 mM KCI, 6 mM MgCl2, 1 mM EGTA, 5 mM NaN3, 0.5 mM phosphoenolpyruvate and 1.5 mM CaCl2, pH 7.0. Before the reaction was started by the injection of […] ATP (resulting in 2 mM final concentration in the well), 5 units/mL of both lactate dehydrogenase and pyruvate kinase, 0.5 mM NADH, and 1 µM Ca^2+ ionophore A-23187 (Sigma, C-7522) were added to the diluted sample with or without the tested compound. The 1.5 mM Ca/EGTA buffer has a free Ca^2+ concentration of about 200 µM. The NADH fluorescence decrease was recorded each 2 s for 10 min course on a multiwell plate reader TECAN Spark 20M in 96-well glass bottom plates (MatTek Corporation; Cat. No. PBK96G-1.5-5-F). Fluorescence was evoked by 380 nm excitation wavelength and collected in a bottom-read mode at 425 nm. Exposure - 30 flashes, excitation bandwidth - 10 nm, emission bandwidth - 10 nm. ATP was injected at 30 s. […] The data were analyzed with computer software GraphPad Prism version 8.3.1 (GraphPad Software, Inc.). The difference in signal decrease with and without microsomes was taken as an indicator for the additional ATPase activity performed by SERCA2a. The obtained values for maximal SERCA2a activity were normalized for total protein concentration. Maximal SERCA2a activity values are reported as percentages of control (0.1% DMSO) values. Microsomal samples that were kept on ice until usage and set to 100%.
In an NADH assay, the change in NADH coenzyme fluorescence reflects the level of the consumption of ATP, which can be taken as an indicator of SERCA2 activity [G. B. Warren, P. A. Toon, N. J. Birdsall, A. G. Lee, J. C. Metcalfe, Reconstitution of a calcium pump using defined membrane components. Proc. Natl. Acad. Sci. U.S.A. 1974, 71, 622 - 626]. ATP hydrolysis by SERCA2 is required to pump calcium ions into the SER. A higher rate of ATP hydrolysis corresponds to enhanced SERCA2 ATPase activity that leads to a greater pumping of calcium ions into the SR. […]

T1 sequence (O55143 1-998 isoform O55143-2): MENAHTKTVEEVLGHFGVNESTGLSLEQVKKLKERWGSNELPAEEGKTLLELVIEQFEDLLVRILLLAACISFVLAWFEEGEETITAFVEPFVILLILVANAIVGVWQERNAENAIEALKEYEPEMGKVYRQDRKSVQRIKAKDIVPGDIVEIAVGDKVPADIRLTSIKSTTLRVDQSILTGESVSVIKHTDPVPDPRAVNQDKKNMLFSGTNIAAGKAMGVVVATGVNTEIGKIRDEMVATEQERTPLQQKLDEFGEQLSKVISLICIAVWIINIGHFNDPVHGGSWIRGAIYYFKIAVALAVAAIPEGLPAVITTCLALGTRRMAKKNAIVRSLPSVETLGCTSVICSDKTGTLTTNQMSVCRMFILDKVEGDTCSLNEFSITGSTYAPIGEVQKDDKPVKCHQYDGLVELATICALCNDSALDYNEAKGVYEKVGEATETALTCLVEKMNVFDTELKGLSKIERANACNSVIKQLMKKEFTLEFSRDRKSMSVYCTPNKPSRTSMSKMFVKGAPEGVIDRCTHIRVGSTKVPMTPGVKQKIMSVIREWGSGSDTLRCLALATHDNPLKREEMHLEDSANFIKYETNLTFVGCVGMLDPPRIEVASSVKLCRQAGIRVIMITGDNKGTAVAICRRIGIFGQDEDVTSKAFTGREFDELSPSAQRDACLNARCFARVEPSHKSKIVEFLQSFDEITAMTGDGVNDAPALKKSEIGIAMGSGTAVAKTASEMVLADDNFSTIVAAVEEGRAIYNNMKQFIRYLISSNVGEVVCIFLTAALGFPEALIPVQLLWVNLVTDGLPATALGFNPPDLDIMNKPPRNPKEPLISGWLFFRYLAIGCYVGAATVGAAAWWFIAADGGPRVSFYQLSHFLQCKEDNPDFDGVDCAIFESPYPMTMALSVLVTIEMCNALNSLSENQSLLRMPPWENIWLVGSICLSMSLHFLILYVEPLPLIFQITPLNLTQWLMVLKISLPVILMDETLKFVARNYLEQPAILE

| SMILES | SERCA2a mouse SR effect class | effect on ATPase activity, in words (cardiac SER vesicles from mouse heart, 10 µM (3 µM for 14b), vs. 0.1 v/v% DMSO) | EC50 (ATPase activity, range after the semicolon is not explained) [nM] |
| --- | --- | --- | --- |
| COc1ccc2c(c1)CN(Cc1ccc(C(=O)O)cc1)CCS2 [ARM210, reference compound] | ++ | – | – |
| COc1ccc2c(c1)CN(CCCCNCCCCC1(O)CC1)CCS2 [Compound 13a, 1-(4-((4-(7-Methoxy-2,3-dihydrobenzo[1,4-f]-thiazepin-4(5H)-yl)butyl)amino)butyl)cyclopropan-1-ol] | + | – | – |
| COc1ccc(OCCCNCCCCC2(O)CC2)cc1 [Compound 13b, 1-(4-((3-(4-methoxyphenoxy)propyl)amino)butyl)cyclopropan-1-ol] | + | – | – |
| COc1ccc(SCCCNCCCCC2(O)CC2)cc1 [Compound 13c, 1-(4-((3-((4-Methoxyphenyl)thio)propyl)amino)butyl)cyclopropan-1-ol] | +++ | – | – |
| COc1ccc2c(c1)CN(CCCCC1(O)CC1)CCS2 [Compound 13d, 1-(4-(7-methoxy-2,3-dihydrobenzo[1,4-f]thiazepin-4(5H)-yl)butyl)cyclopropan-1-ol] | ++ | moderate | – |
| COc1ccc2c(c1)CN(CCCCN(CCCCC1(O)CC1)CCCCC1(O)CC1)CCS2 [Compound 14a, 1,1'-(((4-(7-Methoxy-2,3-dihydrobenzo[1,4-f]thiazepin-4(5H)-yl)butyl)azanediyl)bis(butane-4,1-diyl))bis(cyclopropan-1-ol)] | +++ | – | 383 |
| COc1ccc(SCCCN(CCCCC2(O)CC2)CCCCC2(O)CC2)cc1 [Compound 14c, 1,1'-(((3-((4-Methoxyphenyl)thio)propyl)azanediyl)bis(butane-4,1-diyl))bis(cyclopropan-1-ol)] | + | – | – |
